Experimental findings from PMC6107548, “Identification and characterization of aspartyl-tRNA synthetase inhibitors against Mycobacterium tuberculosis by an integrated whole-cell target-based approach” (Scientific Reports, 2018) are described below.

Broadly, the IC50 is the point on the concentration scale where inhibition reaches its midpoint. The low end stands for higher potency, the high end for lower potency. The Km is the concentration of substrate that gives half-maximal velocity.

In brackets after ≈: the same amount, converted by molar mass. Like-named read-outs stand apart in the source and are kept apart here.

In one series the test system is M.tuberculosis H37Rv. Kind of series: MIC against M. tuberculosis H37Rv (extracellular). The format is cell-based. The following applies: Mycobacterium tuberculosis.
Series [1] relates to M.bovis BCG pMV261::Mt-AspRS. Kind of series: microbe, parasite or virus in culture. The note with it: for MIC: Mycobacterium tuberculosis variant bovis BCG, BCG. The format is cell-based, Mycobacterium bovis BCG.
The subject of another series is HepG2. Kind of series: HepG2 cytotoxicity. The following applies: Homo sapiens, Table S2. The format is cell-based.
In series [2] the target is T1, Mt-AspRS (Mycobacterium tuberculosis, UniProt P9WFW3). Description: Mechanistic characterization, competition with ADPCP in tRNA-independent reaction. The series is classed as biochemical. Further details: made in house. The note with it: ADPCP 0-4000 μM; inhibitor 50 and 100 μM.
The test system of another series is M.bovis BCG empty pMV261. Kind of series: microbe, parasite or virus in culture. The format is cell-based. The note with it: Mycobacterium tuberculosis variant bovis BCG.
Series [3] deals with T1, Mt-AspRS. Description: biochemical.
For the next series, the system named is M.tb H37Rv (intra). Kind of series: MIC against intracellular M.tb H37Rv. The series is classed as cell-based. The following applies: Mycobacterium tuberculosis, Table S2.
A further series has as its system N[C@@H](CC(=O)O)C(=O)O. Description: purified protein, by the assay type. The note with it: pH 7.7; 37.0 °C.
Series [4] addresses T1, Mt-AspRS. Kind of series: tRNA-independent ATP release assay (coupled enzymes, NADPH fluorescence). The following applies: Table S2, 0.5 μM enzyme, 2 mM ADPCP, mean of two replicates. The series is classed as biochemical. More on the design: made in house.
Setting [5] is: Table S1, read-out: MIC M.tuberculosis H37Rv.
[6] abbreviates: Table S2, extracellular, read-out: MIC M.tb H37Rv (extra).
Setting [7] is: read-out: MIC M. bovis BCG pMV261::AspRS.
[8] abbreviates: read-out: MIC M.bovis BCG pMV261::Mt-AspRS.
The mark [9] stands for this setting: read-out: MIC M. bovis empty pMV261 BCG.
The mark [10] stands for this setting: read-out: MIC M.bovis BCG empty pMV261.

T1 sequence (P9WFW3 whole entry): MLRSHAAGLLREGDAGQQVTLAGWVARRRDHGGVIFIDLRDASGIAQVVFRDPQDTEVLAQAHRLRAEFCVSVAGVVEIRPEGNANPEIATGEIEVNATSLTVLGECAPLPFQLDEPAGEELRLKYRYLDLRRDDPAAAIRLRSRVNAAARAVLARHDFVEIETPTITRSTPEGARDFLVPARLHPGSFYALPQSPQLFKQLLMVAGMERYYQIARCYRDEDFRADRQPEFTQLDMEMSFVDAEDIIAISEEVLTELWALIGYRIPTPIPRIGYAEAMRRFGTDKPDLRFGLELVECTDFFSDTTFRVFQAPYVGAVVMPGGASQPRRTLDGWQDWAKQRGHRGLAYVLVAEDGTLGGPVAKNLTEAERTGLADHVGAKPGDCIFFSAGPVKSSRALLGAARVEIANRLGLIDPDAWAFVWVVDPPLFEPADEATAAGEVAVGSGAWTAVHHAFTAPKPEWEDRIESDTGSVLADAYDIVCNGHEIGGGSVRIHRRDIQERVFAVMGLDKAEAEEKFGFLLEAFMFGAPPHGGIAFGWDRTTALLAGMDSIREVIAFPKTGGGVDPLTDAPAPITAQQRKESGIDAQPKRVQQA

In the case of `O=C(O)c1ccc(Nc2nc(-c3cccs3)cs2)cc1O` [GSK93A], the MIC came out at 31.2 µM (≈ 9.95 µg/mL) with M.tuberculosis H37Rv (setting [5]); 31.2 µM (≈ 9.95 µg/mL) in the series on M.tuberculosis H37Rv (setting [6]); 1.7 µM (≈ 0.541 µg/mL) in series [1] (setting [7]); 1.7 µM (≈ 0.541 µg/mL) in series [1] (setting [8]); 0.4 µM (≈ 0.127 µg/mL) in the series with M.bovis BCG empty pMV261 (setting [9]); 0.4 µM (≈ 0.127 µg/mL) in the series on M.bovis BCG empty pMV261 (setting [10]). Further, the MIC with M.tb H37Rv (intra) was greater than 50.1 µM. For the same compound, the “Ratio (MIC shift)” value in [1] amounted to 4.3. The IC50 in the series with HepG2 is greater than 100 µM; against Mt-AspRS [3], 35.6 µM. Also, the “mode of inhibition with regard to ADPCP” value on Mt-AspRS [2] is “Reversible and non-competitive”.
Consider “Mt-AspRS (Mycobacterium tuberculosis H37Rv)”, for which the Km with N[C@@H](CC(=O)O)C(=O)O was 13.8 ± 9.6 µM.
Consider `N#Cc1ccc(COc2ccc3c(c2)CCN(C(=O)/C=C/c2ccc(Nc4ccc(F)cn4)cc2)C3)cc1` [GSK85A], for which the values for the MIC with M.tuberculosis H37Rv (setting [6]) and in the series with M.tb H37Rv (intra) were 2.5 µM (≈ 1.26 µg/mL) and greater than 50.1 µM, respectively. The IC50 stood at 25.1 µM in the series with HepG2 and 3.37 µM at Mt-AspRS [4].
Taken in the same sequence, the figures for `Nc1ccc(/C=C/C(=O)N2CCC(COc3cccnc3)CC2)cn1` [GSK92A] were greater than 80 µM, greater than 50.1 µM, greater than 100 µM and 21.3 µM.
Regarding `O=C1OC2(CCC(CNc3ccc(-c4cc(F)cc(F)c4)nn3)CC2)CN1c1cccnn1` (stereo not shown) [GSK97C], the MIC in the series on M.tuberculosis H37Rv (setting [5]) was 20 µM (≈ 9.05 µg/mL); with M.tuberculosis H37Rv (setting [6]) it was 20 µM (≈ 9.05 µg/mL); in [1] (setting [7]) it was 24.9 µM (≈ 11.3 µg/mL); in series [1] (setting [8]), 24.9 µM (≈ 11.3 µg/mL); with M.bovis BCG empty pMV261 (setting [9]), 10.5 µM (≈ 4.75 µg/mL); in the series with M.bovis BCG empty pMV261 (setting [10]), 10.5 µM (≈ 4.75 µg/mL). In the series with M.tb H37Rv (intra), this compound displayed an MIC of 3.16 µM (≈ 1.43 µg/mL). Moreover, the “Ratio (MIC shift)” value in series [1] turned out to be 2.4. Moreover, the IC50 in the series with HepG2 was 40 µM; against Mt-AspRS [3] it was 1.12 µM. The “mode of inhibition with regard to ADPCP” value on Mt-AspRS [2] was “Reversible and non-competitive”.
